Numbered stars: 1 amine (or outer) side, 2 acyl side, 3 side chain; on linkers, the order of the positions; unused ones are H or OH. Bridge positions count the residues as written; N and C are the ends. Square brackets hold non-standard residues; d marks the D form. Peptide text beside a SMILES is read from it. * marks the point of attachment. X45 = CN([C@@H](CC=C1CN(C(=O)OC(C)(C)C)C1)C(=O)[*:2])[*:1]; hPhe(3-Cl-4-CF3) = N[C@@H](CCc1ccc(C(F)(F)F)c(Cl)c1)C(=O)O; X112 = O=C([C@H](CCOc1ccc(C(F)(F)F)cc1)N[*:1])[*:2]; X102 = O=C([C@H](CCOc1ccc(Cl)cc1)N[*:1])[*:2]; X111 = CN([C@@H](CCC1CCOCC1)C(=O)[*:2])[*:1]; X41 = CN([C@@H](CC=C1CCOCC1)C(=O)[*:2])[*:1]; X119 = CN(C)C(=O)CCCN(CC(=O)[*:2])[*:1]; X74 = CC(C)(O)C=CCN(CC(=O)[*:2])[*:1]; X127 = COC/C=C/CN(CC(=O)[*:2])[*:1]; NMeCha = CN[C@@H](CC1CCCCC1)C(=O)O; NMeChg = CN[C@H](C(=O)O)C1CCCCC1; X43 = O=C(CN(CCCCCO)[*:1])[*:2]; NMeD = CN[C@@H](CC(=O)O)C(=O)O; NMeL = CN[C@@H](CC(C)C)C(=O)O; NMeA = CN[C@@H](C)C(=O)O; Piperidide = C1CCN(*)CC1; Ac5c = NC1(C(=O)O)CCCC1; Sar = CNCC(=O)O

In one test the target is protein-protein interaction between Kras and SOS1 (biotin-tagged human Kras loaded with GDP, His-tagged human SOS1) (Homo sapiens (Human), UniProt P01116, G12D). In words: Protein-protein interaction inhibition between Kras and SOS1 (KrasG12D-SOS PPI) using AlphaScreen.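 Further: kras produced in E. coli, Ni-coupled donor beads and streptavidin acceptor beads, excitation 680 nm with emission detected at 520–620 nm via singlet oxygen transfer.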
Settings: not given
In kind it is biochemical. On the technique in general: Alpha assays give light when donor and acceptor beads are brought close together.
In turn, `CC[C@H](C)[C@@H]1NC(=O)[C@H](CC(C)C)N(C)C(=O)C[C@@H](C(=O)N2CCCCC2)N(C)C(=O)[C@H](C2CCCCC2)N(C)C(=O)C2(CCCC2)NC(=O)CN(CCCC(=O)N(C)C)C(=O)[C@H](CCc2ccc(C(F)(F)F)c(Cl)c2)NC(=O)CN(C)C(=O)[C@H](CC2CCCCC2)N(C)C(=O)CN(C)C(=O)CN(C)C1=O` [Compound 2052, 4-[(11S,17S,26S,29S,33S,36S)-11-[2-[3-chloro-4-(trifluoromethyl)phenyl]ethyl]-36-cyclohexyl-17-(cyclohexylmethyl)-29-isobutyl-15,18,21,24,30,34,37-heptamethyl-26-[(1S)-1-methylpropyl]-7,10,13,16,19,22,25,28,31,35,38-undecaoxo-33-(piperidine-1-carbonyl)-6,9,12,15,18,21,24,27,30,34,37-undecazaspiro[4.33]octatriacontan-9-yl]-N,N-dimethyl-butanamide] ([NMeL]I[Sar][Sar][NMeCha][Sar][hPhe(3-Cl-4-CF3)][X119][Ac5c][NMeChg][NMeD]-Piperidide; lactam N-11) showed an IC50 of 4.9 nM.

The test is the same for the next values; noted with them: AlphaScreen; biotin-tagged human Kras loaded with GDP, His-tagged human SOS1; read-out: KRAS G12D-SOS PPI IC50.
As for `CC[C@H](C)[C@@H]1NC(=O)[C@H](C)N(C)C(=O)C[C@@H](C(=O)N2CCCCC2)N(C)C(=O)[C@H](C2CCCCC2)N(C)C(=O)C2(CCCC2)NC(=O)[C@@H]2CCCN2C(=O)[C@H](CCOc2ccc(Cl)cc2)NC(=O)CN(C)C(=O)[C@H](CC2CCCCC2)N(C)C(=O)CN(C)C(=O)CN(C)C1=O` [Compound 2040, (3S,9S,18S,21S,25S,28S,34S)-3-[2-(4-chlorophenoxy)ethyl]-28-cyclohexyl-9-(cyclohexylmethyl)-7,10,13,16,21,22,26,29-octamethyl-18-[(1S)-1-methylpropyl]-25-(piperidine-1-carbonyl)spiro[1,4,7,10,13,16,19,22,26,29,32-undecazabicyclo[32.3.0]heptatriacontane-31,1-cyclopentane]-2,5,8,11,14,17,20,23,27,30,33-undecone] ([NMeA]I[Sar][Sar][NMeCha][Sar][X102]P[Ac5c][NMeChg][NMeD]-Piperidide; lactam N-11), the IC50 was 150 nM.
Same read-out and setting: for `CC[C@H](C)[C@@H]1NC(=O)[C@H](C)N(C)C(=O)C[C@@H](C(=O)N2CCCCC2)N(C)C(=O)[C@H](C2CCCCC2)N(C)C(=O)C2(CCCC2)NC(=O)[C@@H]2CCCN2C(=O)[C@H](CCOc2ccc(C(F)(F)F)cc2)NC(=O)CN(C)C(=O)[C@H](CC2CCCCC2)N(C)C(=O)CN(C)C(=O)CN(C)C1=O` [Compound 2041, (3S,9S,18S,21S,25S,28S,34S)-28-cyclohexyl-9-(cyclohexylmethyl)-7,10,13,16,21,22,26,29-octamethyl-18-[(1S)-1-methylpropyl]-25-(piperidine-1-carbonyl)-3-[2-[4-(trifluoromethyl)phenoxy]ethyl]spiro[1,4,7,10,13,16,19,22,26,29,32-undecazabicyclo[32.3.0]heptatriacontane-31,1′-cyclopentane]-2,5,8,11,14,17,20,23,27,30,33-undecone] ([NMeA]I[Sar][Sar][NMeCha][Sar][X112]P[Ac5c][NMeChg][NMeD]-Piperidide; lactam N-11) the value was 110 nM; for `CC[C@H](C)[C@@H]1NC(=O)[C@H](CC(C)C)N(C)C(=O)C[C@@H](C(=O)N2CCCCC2)N(C)C(=O)[C@H](C2CCCCC2)N(C)C(=O)C2(CCCC2)NC(=O)CN(CC=CC(C)(C)O)C(=O)[C@H](CCc2ccc(C(F)(F)F)c(Cl)c2)NC(=O)CN(C)C(=O)[C@H](CC2CCCCC2)N(C)C(=O)CN(C)C(=O)CN(C)C1=O` [Compound 2047, (11S,17S,26S,29S,33S,36S)-11-[2-[3-chloro-4-(trifluoromethyl)phenyl]ethyl]-36-cyclohexyl-17-(cyclohexylmethyl)-9-(4-hydroxy-4-methyl-pent-2-enyl)-29-isobutyl-15,18,21,24,30,34,37-heptamethyl-26[(1S)-1-methylpropyl]-33-(piperidine-1-carbonyl)-6,9,12,15,18,21,24,27,30,34,37-undecazaspiro[4.33]octatriacontane-7,10,13,16,19,22,25,28,31,35,38-undecone] ([NMeL]I[Sar][Sar][NMeCha][Sar][hPhe(3-Cl-4-CF3)][X74][Ac5c][NMeChg][NMeD]-Piperidide; lactam N-11), 5.7 nM.
`CC[C@H](C)[C@@H]1NC(=O)[C@H](CC(C)C)N(C)C(=O)C[C@@H](C(=O)N2CCCCC2)N(C)C(=O)[C@H](C2CCCCC2)N(C)C(=O)C2(CCCC2)NC(=O)[C@H](CCC2CCOCC2)N(C)C(=O)[C@H](CCc2ccc(C(F)(F)F)c(Cl)c2)NC(=O)CN(C)C(=O)[C@H](CC2CCCCC2)N(C)C(=O)CN(C)C(=O)CN(C)C1=O` [Compound 2048, (8S,11S,17S,26S,29S,33S,36S)-11-[2-[3-chloro-4-(trifluoromethyl)phenyl]ethyl]-36-cyclohexyl-17-(cyclohexylmethyl)-29-isobutyl-9,15,18,21,24,30,34,37-octamethyl-26-[(1S)-1-methylpropyl]-33-(piperidine-1-carbonyl)-8-(2-tetrahydropyran-4-ylethyl)-6,9,12,15,18,21,24,27,30,34,37-undecazaspiro[4.33]octatriacontane-7,10,13,16,19,22,25,28,31,35,38-undecone] ([NMeL]I[Sar][Sar][NMeCha][Sar][hPhe(3-Cl-4-CF3)][X111][Ac5c][NMeChg][NMeD]-Piperidide; lactam N-11): the IC50 came out at 3.5 nM.
Same read-out and setting: for `CC[C@H](C)[C@@H]1NC(=O)[C@H](CC(C)C)N(C)C(=O)C[C@@H](C(=O)N2CCCCC2)N(C)C(=O)[C@H](C2CCCCC2)N(C)C(=O)C2(CCCC2)NC(=O)CN(CCCCCO)C(=O)[C@H](CCc2ccc(C(F)(F)F)c(Cl)c2)NC(=O)CN(C)C(=O)[C@H](CC2CCCCC2)N(C)C(=O)CN(C)C(=O)CN(C)C1=O` [Compound 2049, (11S,17S,26S,29S,33S,36S)-11-[2-[3-chloro-4-(trifluoromethyl)phenyl]ethyl]-36-cyclohexyl-17-(cyclohexylmethyl)-9-(5-hydroxypentyl)-29-isobutyl-15,18,21,24,30,34,37-heptamethyl-26-[(1S)-1-methylpropyl]-33-(piperidine-1-carbonyl)-6,9,12,15,18,21,24,27,30,34,37-undecazaspiro[4.33]octatriacontane-7,10,13,16,19,22,25,28,31,35,38-undecone] ([NMeL]I[Sar][Sar][NMeCha][Sar][hPhe(3-Cl-4-CF3)][X43][Ac5c][NMeChg][NMeD]-Piperidide; lactam N-11) the value was 4 nM; for `CC[C@H](C)[C@@H]1NC(=O)[C@H](CC(C)C)N(C)C(=O)C[C@@H](C(=O)N2CCCCC2)N(C)C(=O)[C@H](C2CCCCC2)N(C)C(=O)C2(CCCC2)NC(=O)[C@H](CC=C2CN(C(=O)OC(C)(C)C)C2)N(C)C(=O)[C@H](CCc2ccc(C(F)(F)F)c(Cl)c2)NC(=O)CN(C)C(=O)[C@H](CC2CCCCC2)N(C)C(=O)CN(C)C(=O)CN(C)C1=O` [Compound 2050, tert-butyl 3-[2-[(8S,11S,17S,26S,29S,33S,36S)-11-[2-[3-chloro-4-(trifluoromethyl)phenyl]ethyl]-36-cyclohexyl-17-(cyclohexylmethyl)-29-isobutyl-9,15,18,21,24,30,34,37-octamethyl-26-[(1S)-1-methylpropyl]-7,10,13,16,19,22,25,28,31,35,38-undecaoxo-33-(piperidine-1-carbonyl)-6,9,12,15,18,21,24,27,30,34,37-undecazaspiro[4.33]octatriacontan-8-yl]ethylidene]azetidine-1-carboxylate] ([NMeL]I[Sar][Sar][NMeCha][Sar][hPhe(3-Cl-4-CF3)][X45][Ac5c][NMeChg][NMeD]-Piperidide; lactam N-11), 51 nM; for `CC[C@H](C)[C@@H]1NC(=O)[C@H](CC(C)C)N(C)C(=O)C[C@@H](C(=O)N2CCCCC2)N(C)C(=O)[C@H](C2CCCCC2)N(C)C(=O)C2(CCCC2)NC(=O)CN(C/C=C/COC)C(=O)[C@H](CCc2ccc(C(F)(F)F)c(Cl)c2)NC(=O)CN(C)C(=O)[C@H](CC2CCCCC2)N(C)C(=O)CN(C)C(=O)CN(C)C1=O` [Compound 2051, (11S,17S,26S,29S,33S,36S)-11-[2-[3-chloro-4-(trifluoromethyl)phenyl]ethyl]-36-cyclohexyl-17-(cyclohexylmethyl)-29-isobutyl-9-[(E)-4-methoxybut-2-enyl]-15,18,21,24,30,34,37-heptamethyl-26-[(1S)-1-methylpropyl]-33-(piperidine-1-carbonyl)-6,9,12,15,18,21,24,27,30,34,37-undecazaspiro[4.33]octatriacontane-7,10,13,16,19,22,25,28,31,35,38-undecone] ([NMeL]I[Sar][Sar][NMeCha][Sar][hPhe(3-Cl-4-CF3)][X127][Ac5c][NMeChg][NMeD]-Piperidide; lactam N-11), 2.5 nM.
`CC[C@H](C)[C@@H]1NC(=O)[C@H](CC(C)C)N(C)C(=O)C[C@@H](C(=O)N2CCCCC2)N(C)C(=O)[C@H](C2CCCCC2)N(C)C(=O)C2(CCCC2)NC(=O)[C@H](CC=C2CCOCC2)N(C)C(=O)[C@H](CCc2ccc(C(F)(F)F)c(Cl)c2)NC(=O)CN(C)C(=O)[C@H](CC2CCCCC2)N(C)C(=O)CN(C)C(=O)CN(C)C1=O` [Compound 2053, (8S,11S,17S,26S,29S,33S,36S)-11-[2-[3-chloro-4-(trifluoromethyl)phenyl]ethyl]-36-cyclohexyl-17-(cyclohexylmethyl)-29-isobutyl-9,15,18,21,24,30,34,37-octamethyl-26-[(1S)-1-methylpropyl]-33-(piperidine-1-carbonyl)-8-(2-tetrahydropyran-4-ylideneethyl)-6,9,12,15,18,21,24,27,30,34,37-undecazaspiro[4.33]octatriacontane-7,10,13,16,19,22,25,28,31,35,38-undecone] ([NMeL]I[Sar][Sar][NMeCha][Sar][hPhe(3-Cl-4-CF3)][X41][Ac5c][NMeChg][NMeD]-Piperidide; lactam N-11): the IC50 stood at 10 nM.

For orientation: IC50 means the point on the concentration scale where inhibition reaches its midpoint.
